Biological target: T1, human PAH with the R408W mutation (Homo sapiens, UniProt P00439, R408W)
T1 construct: expressed in transfected cells
T1 sequence (P00439 1-452 R408W): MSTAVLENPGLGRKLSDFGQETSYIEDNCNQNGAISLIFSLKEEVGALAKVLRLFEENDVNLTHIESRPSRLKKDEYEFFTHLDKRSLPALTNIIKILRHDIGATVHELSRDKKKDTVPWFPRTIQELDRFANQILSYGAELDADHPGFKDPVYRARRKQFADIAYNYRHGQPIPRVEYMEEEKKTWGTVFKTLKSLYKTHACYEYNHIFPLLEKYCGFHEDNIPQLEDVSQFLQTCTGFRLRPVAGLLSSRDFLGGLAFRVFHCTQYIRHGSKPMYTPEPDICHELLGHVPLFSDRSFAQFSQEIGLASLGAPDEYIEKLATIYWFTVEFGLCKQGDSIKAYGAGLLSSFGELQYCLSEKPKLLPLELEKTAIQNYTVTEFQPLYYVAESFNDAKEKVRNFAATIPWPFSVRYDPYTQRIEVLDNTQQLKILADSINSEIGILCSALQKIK
Experiment: Cell Based Phenylalanine Flux Assay
Settings: A375 cells expressing human R408W PAH; 24 hrs with compound; 13C-Tyrosine by LC-MS; average where tested multiple times; read-out: AC50

Structure (SMILES)	AC50
O=C(Cc1nncs1)N1CCc2[nH]cnc2C1c1nc2ccccc2s1 (stereo not shown) [listing 1 of 2 here]	> 5 µM
Cc1nnc(CCC(=O)N2CCc3[nH]cnc3C2c2nc3c(F)cccc3s2)s1 (stereo not shown) [listing 1 of 2 here]	> 5 µM
Cc1nnc(CCC(=O)N2CCc3[nH]cnc3C2c2nc3cc(F)ccc3s2)s1 (stereo not shown) [listing 1 of 2 here]	> 5 µM
O=C(Cc1nccs1)N1CCc2[nH]cnc2C1c1nc2cc(F)ccc2s1 (stereo not shown) [listing 1 of 2 here]	> 5 µM
Cc1nnc(CCC(=O)N2CCc3[nH]cnc3C2c2nc3cccc(F)c3s2)s1 (stereo not shown) [listing 1 of 2 here]	> 5 µM
Cc1nnc(N2CCc3[nH]cnc3C2c2nc3ccccc3[nH]2)o1 (stereo not shown)	> 5 µM
O=C(c1nc2ccc(F)cc2s1)N1CCc2[nH]cnc2C1c1nc2ccccc2s1 (stereo not shown) [listing 1 of 2 here]	> 5 µM
O=C(c1ccon1)N1CCc2[nH]cnc2C1c1nc2ccccc2s1 (stereo not shown) [listing 1 of 2 here]	> 5 µM
O=C(c1ccsn1)N1CCc2[nH]cnc2C1c1nc2ccccc2s1 (stereo not shown) [listing 1 of 2 here]	> 5 µM
O=C(c1nc2ccccc2s1)N1CCc2[nH]cnc2C1c1nc2cc(F)ccc2s1 (stereo not shown) [listing 1 of 2 here]	> 5 µM
O=C(c1nc2ccccc2s1)N1CCc2[nH]cnc2C1c1nc2c(F)cccc2s1 (stereo not shown) [listing 1 of 2 here]	> 5 µM
COc1ccc2c(C(=O)N3CCc4[nH]cnc4C3c3nc4ccccc4s3)cnn2c1 (stereo not shown) [listing 1 of 2 here]	> 5 µM
O=C(C1CC1)N1CCc2[nH]cnc2C1c1nc2c(F)cccc2s1 (stereo not shown) [listing 1 of 2 here]	> 5 µM
O=C(CC1CC1)N1CCc2[nH]cnc2C1c1nc2c(F)cccc2s1 (stereo not shown) [listing 1 of 2 here]	> 5 µM
N#Cc1ccn2ncc(C(=O)N3CCc4[nH]cnc4C3c3nc4ccc(Br)cc4[nH]3)c2c1 (stereo not shown) [listing 1 of 2 here]	> 5 µM
O=C(c1nccs1)N1CCc2nc[nH]c2C1c1nc2ccc(F)cc2s1 (stereo not shown) [listing 1 of 2 here]	> 5 µM
O=C(c1ncn2ccccc12)N1CCc2[nH]cnc2C1c1nc2ccc(Br)cc2[nH]1 (stereo not shown) [listing 1 of 2 here]	> 5 µM
O=C(c1cnn2cc(Cl)ccc12)N1CCc2[nH]cnc2C1c1nc2ccc(Br)cc2[nH]1 (stereo not shown)	> 5 µM
O=C(c1cnn2ccc(F)cc12)N1CCc2[nH]cnc2C1c1nc2ccc(Br)cc2[nH]1 (stereo not shown) [listing 1 of 2 here]	> 5 µM
O=C(c1cnn2ccc(Cl)cc12)N1CCc2[nH]cnc2C1c1nc2ccc(Cl)cc2[nH]1 (stereo not shown) [listing 1 of 2 here]	> 5 µM
Cc1ccc2c(C(=O)N3CCc4[nH]cnc4C3c3nc4ccc(Cl)cc4[nH]3)cnn2c1 (stereo not shown) [listing 1 of 2 here]	> 5 µM
O=C(c1ccon1)N1CCc2[nH]cnc2C1c1nc2ccc(F)cc2[nH]1 (stereo not shown) [listing 1 of 2 here]	> 5 µM
O=C(Cc1nncs1)N1CCc2[nH]cnc2C1c1nc2ccccc2s1 (stereo not shown) [listing 2 of 2 here]	1 to 5 µM

Structure (SMILES)	AC50
O=C(CCc1nccs1)N1CCc2nc[nH]c2C1c1nc2c(Cl)cccc2s1 (stereo not shown)	1 to 5 µM
Cc1nnc(CCC(=O)N2CCc3[nH]cnc3C2c2nc3cc(F)ccc3s2)s1 (stereo not shown) [listing 2 of 2 here]	1 to 5 µM
O=C(CCc1nccs1)N1CCc2[nH]cnc2C1c1nc2cc(F)ccc2s1 (stereo not shown) [listing 2 of 2 here]	1 to 5 µM
CC(C)(C)CCC(=O)N1CCc2[nH]cnc2C1c1nc2cc(F)ccc2s1 (stereo not shown)	1 to 5 µM
O=C(CCc1nccs1)N1CCc2[nH]cnc2C1c1nc2ccc(Cl)cc2s1 (stereo not shown) [listing 2 of 2 here]	1 to 5 µM
CC(C)(C)CCC(=O)N1CCc2[nH]cnc2C1c1nc2ccc(F)cc2s1 (stereo not shown)	1 to 5 µM
Cc1nnc(CCC(=O)N2CCc3nc[nH]c3C2c2nc3ccc(F)cc3s2)s1 (stereo not shown)	1 to 5 µM
O=C(c1nc2ccc(F)cc2s1)N1CCc2[nH]cnc2C1c1nc2ccccc2s1 (stereo not shown) [listing 2 of 2 here]	1 to 5 µM
O=C(c1nc2ccccc2s1)N1CCc2[nH]cnc2C1c1nc2c(F)cccc2s1 (stereo not shown) [listing 2 of 2 here]	1 to 5 µM
O=C(c1nc2ccccc2s1)N1CCc2[nH]cnc2C1c1nc2ccc(F)cc2s1 (stereo not shown)	1 to 5 µM
O=C(c1nc2ccccc2s1)N1CCc2[nH]cnc2C1c1nc2cc(F)ccc2s1 (stereo not shown) [listing 2 of 2 here]	1 to 5 µM
O=C(c1ncco1)N1CCc2[nH]cnc2C1c1nc2ccccc2s1 (stereo not shown) [listing 2 of 2 here]	1 to 5 µM
O=C(C1CC1)N1CCc2[nH]cnc2C1c1nc2c(F)cccc2s1 (stereo not shown) [listing 2 of 2 here]	1 to 5 µM
O=C(CC1CC1)N1CCc2[nH]cnc2C1c1nc2c(F)cccc2s1 (stereo not shown) [listing 2 of 2 here]	1 to 5 µM
N#Cc1ccn2ncc(C(=O)N3CCc4[nH]cnc4C3c3nc4ccc(Br)cc4[nH]3)c2c1 (stereo not shown) [listing 2 of 2 here]	1 to 5 µM
N#Cc1ccn2ncc(C(=O)N3CCc4[nH]cnc4C3c3nc4ccc(Cl)cc4[nH]3)c2c1 (stereo not shown)	> 5 µM
O=C(c1nccs1)N1CCc2nc[nH]c2C1c1nc2ccc(F)cc2s1 (stereo not shown) [listing 2 of 2 here]	1 to 5 µM
Cc1nnc(C(=O)N2CCc3[nH]cnc3C2c2nc3ccccc3[nH]2)o1 (stereo not shown)	1 to 5 µM
O=C(c1oc(-c2ccccn2)nc1C1CC1)N1CCCc2[nH]cnc2C1c1nc2ccccc2[nH]1 (stereo not shown) [listing 2 of 2 here]	1 to 5 µM
O=C(c1nnc(-c2ccccn2)o1)N1CCCc2[nH]cnc2C1c1nc2ccccc2[nH]1 (stereo not shown)	> 5 µM
O=C(c1ncn2ccccc12)N1CCc2[nH]cnc2C1c1nc2ccc(Br)cc2[nH]1 (stereo not shown) [listing 2 of 2 here]	1 to 5 µM
O=C(c1cnn2ccc(F)cc12)N1CCc2[nH]cnc2C1c1nc2ccc(Br)cc2[nH]1 (stereo not shown) [listing 2 of 2 here]	1 to 5 µM
Cc1ccc2c(C(=O)N3CCc4[nH]cnc4C3c3nc4ccc(Cl)cc4[nH]3)cnn2c1 (stereo not shown) [listing 2 of 2 here]	1 to 5 µM

The remaining lines, values ahead:

AC50	Structure (SMILES)
> 5 µM	CC(=O)N1CCc2[nH]cnc2C1c1nc2ccccc2s1 (stereo not shown)
> 5 µM	O=C(Cc1nccs1)N1CCc2[nH]cnc2C1c1nc2c(F)cccc2s1 (stereo not shown) [listing 1 of 2 here]
> 5 µM	O=C(CCc1nccs1)N1CCc2[nH]cnc2C1c1nc2cc(F)ccc2s1 (stereo not shown) [listing 1 of 2 here]
> 5 µM	O=C(CCc1nccs1)N1CCc2[nH]cnc2C1c1nc2ccc(Cl)cc2s1 (stereo not shown) [listing 1 of 2 here]
1 to 5 µM	O=C(Cc1nc2ccccc2s1)N1CCc2[nH]cnc2C1c1nc2ccccc2s1 (stereo not shown)
> 5 µM	O=C(c1ncco1)N1CCc2[nH]cnc2C1c1nc2ccccc2s1 (stereo not shown) [listing 1 of 2 here]
> 5 µM	O=C(c1cnn2cccc(F)c12)N1CCc2[nH]cnc2C1c1nc2ccccc2s1 (stereo not shown) [listing 1 of 2 here]
> 5 µM	O=C(c1cc2ccccn2c1)N1CCc2[nH]cnc2C1c1nc2ccccc2s1 (stereo not shown)
> 5 µM	O=C(c1nccs1)N1CCc2[nH]cnc2C1c1nc2cc(F)ccc2s1 (stereo not shown) [listing 1 of 2 here]
> 5 µM	O=C(c1oc(-c2ccccn2)nc1C1CC1)N1CCCc2[nH]cnc2C1c1nc2ccccc2[nH]1 (stereo not shown) [listing 1 of 2 here]
> 5 µM	O=C(c1nccs1)N1CCc2[nH]cnc2C1c1nc2cccc(F)c2[nH]1 (stereo not shown) [listing 1 of 2 here]
1 to 5 µM	O=C(CCc1nccs1)N1CCc2[nH]cnc2C1c1nc2c(Br)cccc2s1 (stereo not shown)
1 to 5 µM	O=C(Cc1nccs1)N1CCc2[nH]cnc2C1c1nc2c(F)cccc2s1 (stereo not shown) [listing 2 of 2 here]
1 to 5 µM	Cc1nnc(CCC(=O)N2CCc3[nH]cnc3C2c2nc3c(F)cccc3s2)s1 (stereo not shown) [listing 2 of 2 here]
1 to 5 µM	O=C(Cc1nccs1)N1CCc2[nH]cnc2C1c1nc2cc(F)ccc2s1 (stereo not shown) [listing 2 of 2 here]
1 to 5 µM	Cc1nnc(CCC(=O)N2CCc3[nH]cnc3C2c2nc3cccc(F)c3s2)s1 (stereo not shown) [listing 2 of 2 here]
1 to 5 µM	O=C(c1ccon1)N1CCc2[nH]cnc2C1c1nc2ccccc2s1 (stereo not shown) [listing 2 of 2 here]
1 to 5 µM	O=C(c1ccsn1)N1CCc2[nH]cnc2C1c1nc2ccccc2s1 (stereo not shown) [listing 2 of 2 here]
1 to 5 µM	O=C(c1cnn2cccc(F)c12)N1CCc2[nH]cnc2C1c1nc2ccccc2s1 (stereo not shown) [listing 2 of 2 here]
1 to 5 µM	COc1ccc2c(C(=O)N3CCc4[nH]cnc4C3c3nc4ccccc4s3)cnn2c1 (stereo not shown) [listing 2 of 2 here]
> 5 µM	Clc1csc(CN2CCc3[nH]cnc3C2c2nc3ccccc3[nH]2)n1 (stereo not shown)
> 5 µM	Cc1nnc(CN2CCc3[nH]cnc3C2c2nc3ccccc3[nH]2)s1 (stereo not shown)
> 5 µM	Nc1nnc(CCC(=O)N2CCc3[nH]cnc3C2c2nc3ccccc3s2)s1 (stereo not shown)
1 to 5 µM	O=C(c1nccs1)N1CCc2[nH]cnc2C1c1nc2cc(F)ccc2s1 (stereo not shown) [listing 2 of 2 here]
1 to 5 µM	O=C(c1cnn2c(Br)cccc12)N1CCc2[nH]cnc2C1c1nc2ccccc2[nH]1 (stereo not shown)
1 to 5 µM	O=C(c1nnc(-c2ccccn2)o1)N1CCc2[nH]cnc2C1c1nc2ccccc2[nH]1 (stereo not shown)
> 5 µM	Cc1ccc2c(C(=O)N3CCc4[nH]cnc4C3c3nc4ccc(Br)cc4[nH]3)cnn2c1 (stereo not shown)
1 to 5 µM	O=C(c1cnn2ccc(Cl)cc12)N1CCc2[nH]cnc2C1c1nc2ccc(Cl)cc2[nH]1 (stereo not shown) [listing 2 of 2 here]
1 to 5 µM	O=C(c1ccon1)N1CCc2[nH]cnc2C1c1nc2ccc(F)cc2[nH]1 (stereo not shown) [listing 2 of 2 here]
1 to 5 µM	O=C(c1nccs1)N1CCc2[nH]cnc2C1c1nc2cccc(F)c2[nH]1 (stereo not shown) [listing 2 of 2 here]

— patent publication US20250171438A1 (Agios Pharmaceuticals, Inc., priority 2022, published 2025)
